Laboratory results as given in US9133206B2, “Benzodiazepine and pyridodiazepine derivatives” (AbbVie Inc., priority 2010, dated 2015).

Test system: SK-N-SH human neuroblastoma cells
Test: Serum Deprivation/JC-1 Mitochondrial Membrane Potential (MMP) Assay
Format: cell-based
Conditions: Homo sapiens, SK-N-SH; for EC50: 18 h, serum deprivation ~18 hours, JC-1 ratio normalized to peak value for 10 μM dimebolin, single curve fit to mean data of n=2-3; for Emax: percent maximal intensity in JC-1 ratio normalized to peak value for 10 μM dimebolin, serum deprivation, read-out: JC-1 max %
Excerpt: The method also involves a high-throughput assay using serum-deprivation conditions involving neuronal cells to screen for compounds that increase or preserve mitochondrial membrane potential. Such compounds can be found to aid in rescuing cells from energy-depletion that occurs in several neurodegenerative states. Mitochondrial-mediated apoptosis occurs in response to a wide range of apoptotic stimuli including p^53, c-myc, DNA damage, prooxidants, chemotherapeutic agents, serum starvation and death receptor activation (Lin C—H., Lu Y-Z., Cheng, F-C., Chu L-F. and Hsuch C-M. Bax-regulated mitochondrial-mediated apoptosis is responsible for the in vitro ischemia induced neuronal cell death of Sprague Dawley rat. Neuroscience Lett. 2005, 387, 22-27).
Thus, this stress inducer, serum deprivation, combined with monitoring changes in the mitochondrial membrane potential in a 96-well format allows for the establishment of an efficient high-throughput screen (HTS) in order to evaluate the ability of compounds to increase mitochondrial membrane potential in the presence of stress and preserve health of the cell. Exemplary procedures for conducting such high-throughput assay are provided below.
SK-N-SH human neuroblastoma cells obtained from American Type Culture Collection (Rockville, Md.) were maintained in the log phase of growth in Minimal Essential Media (MEM), 10% heat inactivated fetal calf serum and 100 units/mL antibiotic-antimycotic (AA). Cells were cultured and maintained in a humidified incubator at 37° C. under 5% CO2 and 95% air. Cells were trypsinized (0.25%) and subcultured every 3 days and used from 15-18 passages. All cell culture supplies were obtained from Invitrogen (Carlsbad, Calif.).
SK-N-SH cells were plated 2-3 days in advance at a concentration of 50,000 cells/well onto collagen coated black-walled 96 well plates (Becton-Dickinson, Bedford, Mass.) in a total volume of […]. On day of experimental treatment, the media containing serum was aspirated from each well and rinsed once with MEM/1% AA without serum. The cells then were incubated overnight in 100 μL of MEM/1% AA (no serum) with and without dimebolin or novel chemical entities overnight for ˜18 hours. The following day, JC-1 dye (5,5′,6,6′-tetrachloro-1,1′,3,3′-tetraethylbenzimidazolcarbocyanide) was diluted 1:10 into MEM media according to the JC-1 Mitochondrial Membrane Potential Assay Kit: (Cayman Chemical Company, Ann Arbor, Mich.) and then 10 μL of the JC-1 dye solution was added to each well. The plates were centrifuged for 5 minutes at 400×g at room temperature followed by 40 minute incubation at 37° C. The plates were washed twice with 200 μL of provided Assay Buffer followed an addition of 100 μL of Assay Buffer to each well. The plates were read with an excitation and emission of 560 nm and 595 nM for red fluorescence and with an excitation and emission of 485 nm and 535 nM for green fluorescence to determine the final JC-1 value taking the red to green fluorescence ratio. This assay is based on change in mitochondrial membrane potential (MMP) using this lipophilic cationic dye, JC-1, by monitoring the changes in the ratio of red to green fluorescence as the MMP depolarizes. This change in MMP reflects the health of the cell with healthy, viable cells have a high JC-1 ratio and high MMP whereas apoptotic, unhealthy cells have a low JC-1 ratio or low MMP.
For the ability of compounds to reverse the stress due to serum deprivation and increase the JC-1 ratio, the percent maximal intensity in JC-1 ratio was normalized to that induced by the peak value for 10 μM dimebolin and plotted against the compound concentration to calculate EC50 values and to control for plate-to-plate variability. Concentration-response data were analyzed using GraphPad Prism (San Diego, Calif.); the EC50 values were derived from a single curve fit to the mean data of n=2-3, in duplicates. […]

Compound | EC50 | Emax
c1ccc(CN2CCN3c4ccccc4NCCC3C2)cc1 (stereo not drawn) [Example 26, 3-benzyl-1,2,3,4,4a,5,6,7-octahydropyrazino[1,2-a][1,5]benzodiazepine] | 3.47 µM | 210%
O=C(Cc1ccc(Cl)cc1)N1CCC2CN(Cc3ccccc3)CCN2c2ccccc21 (stereo not drawn) [Example 27, 1-(3-benzyl-2,3,4,4a,5,6-hexahydropyrazino[1,2-a][1,5]benzodiazepin-7(1H)-yl)-2-(4-chlorophenyl)ethanone] | 4.44 µM | 149%
c1ccc(CN2CCN3c4ccccc4CN(Cc4cccnc4)CC3C2)cc1 (stereo not drawn) [Example 28, 3-benzyl-6-(pyridin-3-ylmethyl)-1,2,3,4,4a,5,6,7-octahydropyrazino[1,2-a][1,4]benzodiazepine] | 9.59 µM | 88%
c1ccc(CN2CCN3c4ccccc4CN(Cc4ccccn4)CC3C2)cc1 (stereo not drawn) [Example 29, 3-benzyl-6-(pyridin-2-ylmethyl)-1,2,3,4,4a,5,6,7-octahydropyrazino[1,2-a][1,4]benzodiazepine] | 4.87 µM | 221%
c1ccc(CN2CCN3c4ccccc4CN(Cc4ccncc4)CC3C2)cc1 (stereo not drawn) [Example 30, 3-benzyl-6-(pyridin-4-ylmethyl)-1,2,3,4,4a,5,6,7-octahydropyrazino[1,2-a][1,4]benzodiazepine] | 3.6 µM | 216%
O=C(c1ccc(Br)cc1)N1Cc2ccccc2N2CCN(Cc3ccccc3)CC2C1 (stereo not drawn) [Example 31, (3-benzyl-1,2,3,4,4a,5-hexahydropyrazino[1,2-a][1,4]benzodiazepin-6(7H)-yl)(4-bromophenyl)methanone] | 1.97 µM | 218%
Cc1ccc(CN2Cc3ccccc3N3CCN(Cc4ccccc4)CC3C2)cn1 (stereo not drawn) [Example 32, 3-benzyl-6-[(6-methylpyridin-3-yl)methyl]-1,2,3,4,4a,5,6,7-octahydropyrazino[1,2-a][1,4]benzodiazepine] | 1.98 µM | 140%
c1ccc(CN2CCN3c4ccccc4CN(Cc4cnc5ccccc5c4)CC3C2)cc1 (stereo not drawn) [Example 33, 3-benzyl-6-(quinolin-3-ylmethyl)-1,2,3,4,4a,5,6,7-octahydropyrazino[1,2-a][1,4]benzodiazepine] | 1.3 µM | 192%
Clc1ccc(CN2Cc3ccccc3N3CCN(Cc4ccccc4)CC3C2)cn1 (stereo not drawn) [Example 34, 3-benzyl-6-[(6-chloropyridin-3-yl)methyl]-1,2,3,4,4a,5,6,7-octahydropyrazino[1,2-a][1,4]benzodiazepine] | 2.94 µM | 213%
FC(F)(F)c1ccc(CN2Cc3ccccc3N3CCN(Cc4ccccc4)CC3C2)cn1 (stereo not drawn) [Example 35, 3-benzyl-6-{[6-(trifluoromethyl)pyridin-3-yl]methyl}-1,2,3,4,4a,5,6,7-octahydropyrazino[1,2-a][1,4]benzodiazepine] | 2.86 µM | 159%
c1ccc(CN2CCN3c4ccccc4CN(Cc4ccnc5ccccc45)CC3C2)cc1 (stereo not drawn) [Example 36, 3-benzyl-6-(quinolin-4-ylmethyl)-1,2,3,4,4a,5,6,7-octahydropyrazino[1,2-a][1,4]benzodiazepine] | 1.05 µM | 137%
c1ccc(CN2CCN3c4ccccc4CN(Cc4cncc5ccccc45)CC3C2)cc1 (stereo not drawn) [Example 37, 3-benzyl-6-(isoquinolin-4-ylmethyl)-1,2,3,4,4a,5,6,7-octahydropyrazino[1,2-a][1,4]benzodiazepine] | 1.21 µM | 172%
O=C1NCc2ccccc2N2CCN(Cc3ccc(F)cc3)CC12 (stereo not drawn) [Example 38, 3-(4-fluorobenzyl)-2,3,4,4a,6,7-hexahydropyrazino[1,2-a][1,4]benzodiazepin-5(1H)-one] | > 30 µM | 27%
Brc1ccc(CN2Cc3ccccc3N3CCN(Cc4ccccc4)CC3C2)cn1 (stereo not drawn) [Example 39, 3-benzyl-6-[(6-bromopyridin-3-yl)methyl]-1,2,3,4,4a,5,6,7-octahydropyrazino[1,2-a][1,4]benzodiazepine] | 3.69 µM | 200%
Fc1ccc(CN2CCN3c4ccccc4CNCC3C2)cc1 (stereo not drawn) [Example 40, 3-(4-fluorobenzyl)-1,2,3,4,4a,5,6,7-octahydropyrazino[1,2-a][1,4]benzodiazepine] | 11.8 µM | 224%
O=C(c1ccc(Br)cc1)N1CCC2CN(Cc3ccccc3)CCN2c2ccccc21 (stereo not drawn) [Example 41, (3-benzyl-2,3,4,4a,5,6-hexahydropyrazino[1,2-a][1,5]benzodiazepin-7(1H)-yl)(4-bromophenyl)methanone] | 4.67 µM | 186%
Brc1ccc(CN2Cc3ccccc3N3CCN(Cc4ccccc4)CC3C2)nc1 (stereo not drawn) [Example 42, 3-benzyl-6-[(5-bromopyridin-2-yl)methyl]-1,2,3,4,4a,5,6,7-octahydropyrazino[1,2-a][1,4]benzodiazepine] | 3.09 µM | 189%
O=C(c1ccncc1)N1CCC2CN(Cc3ccccc3)CCN2c2ccccc21 (stereo not drawn) [Example 43, (3-benzyl-2,3,4,4a,5,6-hexahydropyrazino[1,2-a][1,5]benzodiazepin-7(1H)-yl)(pyridin-4-yl)methanone] | 6.76 µM | 115%
Clc1ccc(CCN2CCC3CN(Cc4ccccc4)CCN3c3ccccc32)cc1 (stereo not drawn) [Example 44, 3-benzyl-7-[2-(4-chlorophenyl)ethyl]-1,2,3,4,4a,5,6,7-octahydropyrazino[1,2-a][1,5]benzodiazepine] | 3 µM | 291%
c1ccc(CN2CCN3c4ccccc4N(Cc4ccccc4)CCC3C2)cc1 (stereo not drawn) [Example 45, 3,7-dibenzyl-1,2,3,4,4a,5,6,7-octahydropyrazino[1,2-a][1,5]benzodiazepine] | 5.93 µM | 238%
Ic1ccc(CN2Cc3ccccc3N3CCN(Cc4ccccc4)CC3C2)cc1 (stereo not drawn) [Example 46, 3-benzyl-6-(4-iodobenzyl)-1,2,3,4,4a,5,6,7-octahydropyrazino[1,2-a][1,4]benzodiazepine] | 1.87 µM | 192%
Brc1ccc(CN2CCC3CN(Cc4ccccc4)CCN3c3ccccc32)cc1 (stereo not drawn) [Example 47, 3-benzyl-7-(4-bromobenzyl)-1,2,3,4,4a,5,6,7-octahydropyrazino[1,2-a][1,5]benzodiazepine] | 2.78 µM | 273%
c1ccc(CN2CCN3c4ccccc4N(Cc4ccncc4)CCC3C2)cc1 (stereo not drawn) [Example 48, 3-benzyl-7-(pyridin-4-ylmethyl)-1,2,3,4,4a,5,6,7-octahydropyrazino[1,2-a][1,5]benzodiazepine] | 1.84 µM | 125%
CN1CCC2CN(Cc3ccccc3)CCN2c2ccccc21 (stereo not drawn) [Example 49, 3-benzyl-7-methyl-1,2,3,4,4a,5,6,7-octahydropyrazino[1,2-a][1,5]benzodiazepine] | 10.4 µM | 128%
Oc1ccc(CN2Cc3ccccc3N3CCN(Cc4ccccc4)CC3C2)cc1 (stereo not drawn) [Example 50, 4-[(3-benzyl-1,2,3,4,4a,5-hexahydropyrazino[1,2-a][1,4]benzodiazepin-6(7H)-yl)methyl]phenol] | 5.95 µM | 240%
O=C1CC2CN(Cc3ccccc3)CCN2c2ncccc2N1 (stereo not drawn) [Example 51, 9-benzyl-7,7a,8,9,10,11-hexahydropyrazino[1,2-d]pyrido[3,2-b][1,4]diazepin-6(5H)-one] | 8.83 µM | 68%
c1ccc(CN2CCN3c4ncccc4NCCC3C2)cc1 (stereo not drawn) [Example 52, 9-benzyl-5,6,7,7a,8,9,10,11-octahydropyrazino[1,2-d]pyrido[3,2-b][1,4]diazepine] | 5.97 µM | 100%
